# According to patent US20080009418A1, “Selective Inhibitors” (Alchemia LTD., priority 2004, published 2008):
# Legend:
# Human δ-opioid (DOP) = target: T1, Human δ-opioid (DOP) (Homo sapiens, UniProt P41143); assay: Radioligand binding, human δ-opioid (DOP) membranes, FlashPlate, [3H]-Bremazocine; details: compound at 10 μM, [3H]-Bremazocine
# T1 construct: purchased Perkin Elmer Biosignal
# Summary of the method: (§1)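 Cloned human receptor membranes were coated onto FlashPlate wells and incubated with radioligand and compound (added from a 0.5 mM DMSO daughter plate) for 1 hour at room temperature in the dark. Scintillation counting gave percent inhibition, with DMSO defining total and reference ligand defining non-specific binding.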
# Human opioid (ORL1) = target: T2, Human opioid (ORL1) (Homo sapiens, UniProt P41146); assay: Radioligand binding, human opioid ORL1 membranes, FlashPlate, [125I]-Nociceptin; details: compound at 10 μM, [125I]-Nociceptin
# T2 construct: purchased Perkin Elmer Biosignal
# Summary of the method: as §1
# Human melanocortin (MC5) = target: T3, Human melanocortin (MC5) (Homo sapiens, UniProt P33032); assay: Radioligand binding, human melanocortin MC5 membranes, FlashPlate, [125I]-NDP-αMSH; details: compound at 10 μM, [125I]-NDP-αMSH
# T3 construct: purchased Perkin Elmer Biosignal
# Summary of the method: as §1
# Human μ-opioid (MOP) = target: T4, Human μ-opioid (MOP) (Homo sapiens, UniProt P35372); assay: Radioligand binding, human μ-opioid (MOP) membranes, FlashPlate, [3H]-Naloxone; details: compound at 10 μM, [3H]-Naloxone
# T4 construct: purchased Perkin Elmer Biosignal
# Summary of the method: as §1
# Mouse urotensin (mUR2) = target: T5, Mouse urotensin (mUR2) (Mus musculus, UniProt Q8VIH9); assay: Radioligand binding, mouse urotensin mUR2 membranes, FlashPlate, [125I]-Urotensin II; details: compound at 10 μM, [125I]-Urotensin II
# T5 construct: purchased Perkin Elmer Biosignal
# T5 sequence (Q8VIH9 1-385): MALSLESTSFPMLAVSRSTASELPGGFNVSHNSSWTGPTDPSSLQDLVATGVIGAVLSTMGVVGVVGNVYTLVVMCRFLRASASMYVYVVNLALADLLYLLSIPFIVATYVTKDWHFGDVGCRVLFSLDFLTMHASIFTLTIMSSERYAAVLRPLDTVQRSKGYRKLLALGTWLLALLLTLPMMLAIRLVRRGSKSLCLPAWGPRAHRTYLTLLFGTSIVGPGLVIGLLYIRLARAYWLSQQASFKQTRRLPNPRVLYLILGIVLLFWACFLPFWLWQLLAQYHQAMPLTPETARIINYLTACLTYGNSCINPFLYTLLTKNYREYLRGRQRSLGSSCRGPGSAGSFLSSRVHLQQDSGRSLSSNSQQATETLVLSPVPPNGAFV
# Summary of the method: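 Cloned mouse urotensin (mUR2) receptor membranes from Perkin Elmer Biosignal were immobilized in FlashPlate microplates using a proprietary coating. Each well got 19.5 μl buffer, then 0.5 μl of DMSO, reference ligand, or compound. Adding 5 μl of [125I]-Urotensin II, diluted to 5× final concentration in binding buffer, started binding. Plates were sealed with TopSeal-A and incubated 1 hour at room temperature in the dark. Wells were counted for 30 seconds each on a TopCount after a 60-second delay, and percentage inhibition was calculated.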
# Human Melanocortin (MC4) = target: T6, Human Melanocortin (MC4) (Homo sapiens, UniProt P32245); assay: Radioligand binding, human melanocortin MC4 membranes, FlashPlate, [125I]-NDP-αMSH; details: compound at 10 μM, [125I]-NDP-αMSH
# T6 construct: purchased Perkin Elmer Biosignal
# Summary of the method: as §1
# [1] = target: T7, Human neuropeptide Y (NPY-Y1) (Homo sapiens, UniProt P25929); assay: Radioligand binding, human neuropeptide Y NPY-Y1 membranes, FlashPlate, [125I]-PYY; details: compound at 10 μM, [125I]-PYY
# T7 construct: purchased Perkin Elmer Biosignal
# T7 sequence (P25929 1-384): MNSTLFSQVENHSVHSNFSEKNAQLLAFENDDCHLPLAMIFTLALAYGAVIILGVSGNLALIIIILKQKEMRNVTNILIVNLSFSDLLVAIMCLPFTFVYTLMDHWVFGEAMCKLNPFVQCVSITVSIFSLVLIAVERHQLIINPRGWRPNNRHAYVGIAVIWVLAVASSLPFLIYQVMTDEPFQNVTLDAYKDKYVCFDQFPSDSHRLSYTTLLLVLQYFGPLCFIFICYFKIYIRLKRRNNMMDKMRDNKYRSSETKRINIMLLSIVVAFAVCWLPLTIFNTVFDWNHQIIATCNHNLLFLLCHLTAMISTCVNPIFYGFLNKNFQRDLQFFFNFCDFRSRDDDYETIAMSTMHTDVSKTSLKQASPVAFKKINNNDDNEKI
# Summary of the method: as §1
# Human Melanocortin (MC3) = target: T8, Human Melanocortin (MC3) (Homo sapiens, UniProt P41968); assay: Radioligand binding, human melanocortin MC3 membranes, FlashPlate, [125I]-NDP-αMSH; details: compound at 10 μM, [125I]-NDP-αMSH
# T8 construct: purchased Perkin Elmer Biosignal
# Summary of the method: as §1
# Human neurokinin (NK1) = target: T9, Human neurokinin (NK1) (Homo sapiens, UniProt P25103); assay: Radioligand binding, human neurokinin NK1 membranes, filtration, [125I]-Substance P; details: compound at 10 μM, [125I]-Substance P
# T9 construct: purchased Perkin Elmer Biosignal
# Summary of the method: (§2)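 Filtration binding on cloned human receptor membranes (1 Unit/well), [125I]-Substance P for NK1 and [3H]-Diprenorphine for KOP, 1 h at room temperature. Filters PEI-presoaked, washed with cold 50 mM Tris-HCl pH 7.4, counted by scintillation; percent inhibition calculated, reference ligand defining non-specific binding.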
# [2] = target: T10, Human melanin-concentrating hormone (MCH1) (Homo sapiens, UniProt Q99705); assay: Radioligand binding, human melanin-concentrating hormone MCH1 membranes, FlashPlate, [125I]-S36057; details: compound at 10 μM
# T10 construct: purchased Perkin Elmer Biosignal
# Summary of the method: as §1
# Human κ-Opioid (KOP) = target: T11, Human κ-Opioid (KOP) (Homo sapiens, UniProt P41145); assay: Radioligand binding, human κ-opioid (KOP) membranes, filtration, [3H]-Diprenorphine; details: compound at 10 μM, [3H]-Diprenorphine
# T11 construct: purchased Perkin Elmer Biosignal
# Summary of the method: as §2
# T3 sequence (P33032 whole entry): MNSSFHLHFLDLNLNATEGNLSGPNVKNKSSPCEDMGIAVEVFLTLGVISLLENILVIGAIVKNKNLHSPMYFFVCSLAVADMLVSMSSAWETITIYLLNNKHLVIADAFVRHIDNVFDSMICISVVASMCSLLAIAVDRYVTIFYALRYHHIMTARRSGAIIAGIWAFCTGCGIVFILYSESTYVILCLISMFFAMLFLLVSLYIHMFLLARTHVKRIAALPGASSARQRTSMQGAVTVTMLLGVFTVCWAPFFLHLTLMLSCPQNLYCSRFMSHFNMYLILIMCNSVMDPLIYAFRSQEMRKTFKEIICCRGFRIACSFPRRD
# T1 sequence (P41143 whole entry): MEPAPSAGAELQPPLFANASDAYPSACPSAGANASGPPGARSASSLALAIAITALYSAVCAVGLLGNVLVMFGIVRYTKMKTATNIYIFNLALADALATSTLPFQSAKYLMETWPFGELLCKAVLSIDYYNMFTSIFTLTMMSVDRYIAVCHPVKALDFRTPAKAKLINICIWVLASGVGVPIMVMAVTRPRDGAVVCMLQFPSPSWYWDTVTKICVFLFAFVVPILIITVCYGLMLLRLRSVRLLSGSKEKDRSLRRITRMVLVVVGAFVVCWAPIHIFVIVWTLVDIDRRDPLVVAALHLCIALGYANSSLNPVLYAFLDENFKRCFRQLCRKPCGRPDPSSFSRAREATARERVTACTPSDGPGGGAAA
# T2 sequence (P41146 whole entry): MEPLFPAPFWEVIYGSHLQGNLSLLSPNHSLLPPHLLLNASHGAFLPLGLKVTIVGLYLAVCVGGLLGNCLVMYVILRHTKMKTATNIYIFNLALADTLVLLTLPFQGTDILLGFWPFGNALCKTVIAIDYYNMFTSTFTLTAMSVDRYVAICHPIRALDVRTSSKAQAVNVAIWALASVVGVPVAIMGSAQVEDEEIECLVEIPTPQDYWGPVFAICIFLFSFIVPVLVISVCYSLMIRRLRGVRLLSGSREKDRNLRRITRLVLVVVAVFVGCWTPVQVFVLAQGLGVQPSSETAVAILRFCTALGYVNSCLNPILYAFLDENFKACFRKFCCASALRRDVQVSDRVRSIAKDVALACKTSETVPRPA
# T8 sequence (P41968 whole entry): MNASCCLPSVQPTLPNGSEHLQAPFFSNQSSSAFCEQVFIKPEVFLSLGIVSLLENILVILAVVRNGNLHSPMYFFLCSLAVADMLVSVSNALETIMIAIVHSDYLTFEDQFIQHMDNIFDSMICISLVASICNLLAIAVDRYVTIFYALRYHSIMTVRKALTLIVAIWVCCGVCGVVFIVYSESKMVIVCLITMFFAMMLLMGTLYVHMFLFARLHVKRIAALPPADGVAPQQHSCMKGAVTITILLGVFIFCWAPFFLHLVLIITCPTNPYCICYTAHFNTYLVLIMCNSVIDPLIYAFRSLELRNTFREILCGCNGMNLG
# T11 sequence (P41145 whole entry): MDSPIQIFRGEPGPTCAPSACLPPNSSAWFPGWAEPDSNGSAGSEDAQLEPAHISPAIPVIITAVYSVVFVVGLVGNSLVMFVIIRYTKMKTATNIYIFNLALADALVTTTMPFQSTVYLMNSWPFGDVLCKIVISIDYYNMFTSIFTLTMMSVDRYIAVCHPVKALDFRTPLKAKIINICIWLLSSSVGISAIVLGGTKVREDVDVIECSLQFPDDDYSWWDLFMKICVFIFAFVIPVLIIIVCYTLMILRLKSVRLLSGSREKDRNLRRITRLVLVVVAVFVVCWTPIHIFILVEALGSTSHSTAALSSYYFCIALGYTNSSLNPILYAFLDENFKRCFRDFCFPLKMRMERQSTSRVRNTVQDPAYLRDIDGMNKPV
# T10 sequence (Q99705 whole entry): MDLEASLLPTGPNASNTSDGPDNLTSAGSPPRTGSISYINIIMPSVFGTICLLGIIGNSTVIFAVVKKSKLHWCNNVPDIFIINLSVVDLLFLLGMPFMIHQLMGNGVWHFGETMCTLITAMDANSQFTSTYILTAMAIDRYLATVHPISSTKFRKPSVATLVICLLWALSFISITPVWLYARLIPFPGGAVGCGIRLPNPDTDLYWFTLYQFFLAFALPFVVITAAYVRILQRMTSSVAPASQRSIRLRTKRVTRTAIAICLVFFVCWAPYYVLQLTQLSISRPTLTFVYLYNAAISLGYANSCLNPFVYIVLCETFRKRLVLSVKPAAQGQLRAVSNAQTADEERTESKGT
# T9 sequence (P25103 whole entry): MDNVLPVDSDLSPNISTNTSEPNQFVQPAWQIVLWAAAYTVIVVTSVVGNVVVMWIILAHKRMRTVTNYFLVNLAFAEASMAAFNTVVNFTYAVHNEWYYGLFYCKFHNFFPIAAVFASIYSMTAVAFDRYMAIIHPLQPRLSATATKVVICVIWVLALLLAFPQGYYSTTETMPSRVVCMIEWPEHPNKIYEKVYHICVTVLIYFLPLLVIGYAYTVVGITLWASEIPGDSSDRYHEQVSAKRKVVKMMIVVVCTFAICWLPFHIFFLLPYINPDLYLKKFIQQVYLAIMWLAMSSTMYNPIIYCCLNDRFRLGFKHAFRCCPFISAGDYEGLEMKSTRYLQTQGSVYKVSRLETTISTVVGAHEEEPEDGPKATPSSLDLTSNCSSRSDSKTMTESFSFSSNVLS
# T4 sequence (P35372 whole entry): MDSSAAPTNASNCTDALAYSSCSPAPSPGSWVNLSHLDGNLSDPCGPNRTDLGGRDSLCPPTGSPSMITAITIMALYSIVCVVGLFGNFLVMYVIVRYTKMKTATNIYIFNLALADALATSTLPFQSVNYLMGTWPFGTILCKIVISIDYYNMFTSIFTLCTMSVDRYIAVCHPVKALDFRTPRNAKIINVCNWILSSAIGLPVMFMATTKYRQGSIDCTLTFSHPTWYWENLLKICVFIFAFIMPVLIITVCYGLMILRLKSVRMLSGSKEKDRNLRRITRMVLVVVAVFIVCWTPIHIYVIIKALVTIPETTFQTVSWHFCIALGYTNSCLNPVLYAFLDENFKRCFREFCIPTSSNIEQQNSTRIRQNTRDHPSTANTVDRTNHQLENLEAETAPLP
# T6 sequence (P32245 whole entry): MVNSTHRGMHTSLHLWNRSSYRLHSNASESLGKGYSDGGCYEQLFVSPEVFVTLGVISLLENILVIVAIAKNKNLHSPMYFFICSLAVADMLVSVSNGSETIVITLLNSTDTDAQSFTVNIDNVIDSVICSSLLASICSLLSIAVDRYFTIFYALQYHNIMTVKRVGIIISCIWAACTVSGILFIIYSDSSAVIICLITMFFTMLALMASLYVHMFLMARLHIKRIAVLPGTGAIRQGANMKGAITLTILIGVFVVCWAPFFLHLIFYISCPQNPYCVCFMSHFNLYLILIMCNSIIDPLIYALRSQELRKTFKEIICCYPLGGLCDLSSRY
Structure (SMILES),"A1: inhibition of radioligand binding, human δ-opioid (DOP) (Human δ-opioid (DOP))","A10: inhibition of radioligand binding, human opioid (ORL1) (Human opioid (ORL1))","A7: inhibition of radioligand binding, human μ-opioid (MOP) (Human μ-opioid (MOP))","A11: inhibition of radioligand binding, mouse urotensin (mUR2) (Mouse urotensin (mUR2))","A4: inhibition of radioligand binding, human melanocortin (MC4) (Human Melanocortin (MC4))","A9: inhibition of radioligand binding, human neuropeptide Y (NPY-Y1) [1]","A3: inhibition of radioligand binding, human melanocortin (MC3) (Human Melanocortin (MC3))","A6: inhibition of radioligand binding, human melanin-concentrating hormone (MCH1) ([2]; [125I]-S36057)","A2: inhibition of radioligand binding, human κ-opioid (KOP) (Human κ-Opioid (KOP))","A5: inhibition of radioligand binding, human melanocortin (MC5) (Human melanocortin (MC5))","A8: inhibition of radioligand binding, human neurokinin (NK1) (Human neurokinin (NK1))",other results
COCC1OC(OCc2ccc3ccccc3c2)C(NC(=O)CNC(=N)N)C(OCc2ccc(-c3ccccc3)cc2)C1O (stereo not shown) [compound 242],,,,,,,,,,,,"A1: inhibition of radioligand binding (Human δ-opioid (DOP); FlashPlate): − (“−” indicates less than 50% inhibition at 10 μM); A10: inhibition of radioligand binding (Human opioid (ORL1); FlashPlate): − (“−” indicates less than 50% inhibition at 10 μM); A5: inhibition of radioligand binding (Human melanocortin (MC5); FlashPlate): + (“+” indicates greater than 50% inhibition at 10 μM); A7: inhibition of radioligand binding (Human μ-opioid (MOP); FlashPlate): − (“−” indicates less than 50% inhibition at 10 μM); A11: inhibition of radioligand binding (Mouse urotensin (mUR2); FlashPlate): − (“−” indicates less than 50% inhibition at 10 μM); A4: inhibition of radioligand binding (Human Melanocortin (MC4); FlashPlate): + (“+” indicates greater than 50% inhibition at 10 μM); A9: inhibition of radioligand binding ([1]; FlashPlate): − (“−” indicates less than 50% inhibition at 10 μM); A3: inhibition of radioligand binding (Human Melanocortin (MC3); FlashPlate): + (“+” indicates greater than 50% inhibition at 10 μM); A8: inhibition of radioligand binding (Human neurokinin (NK1); filtration): + (“+” indicates greater than 50% inhibition at 10 μM); A6: inhibition of radioligand binding ([2]; [125I]-S36057, FlashPlate): − (“−” indicates less than 50% inhibition at 10 μM); A2: inhibition of radioligand binding (Human κ-Opioid (KOP); filtration): − (“−” indicates less than 50% inhibition at 10 μM)"
COCC1OC(OCc2ccc3ccccc3c2)C(NC(=O)CCN)C(OCc2ccc3ccccc3c2)C1O (stereo not shown) [compound 545],− (“−” indicates less than 50% inhibition at 10 μM),− (“−” indicates less than 50% inhibition at 10 μM),− (“−” indicates less than 50% inhibition at 10 μM),− (“−” indicates less than 50% inhibition at 10 μM),− (“−” indicates less than 50% inhibition at 10 μM),− (“−” indicates less than 50% inhibition at 10 μM),− (“−” indicates less than 50% inhibition at 10 μM),− (“−” indicates less than 50% inhibition at 10 μM),− (“−” indicates less than 50% inhibition at 10 μM),,,"A5: inhibition of radioligand binding, human melanocortin (MC5) (Human melanocortin (MC5); 10 µM): − (“−” indicates less than 50% inhibition at 10 μM); A8: inhibition of radioligand binding, human neurokinin (NK1) (Human neurokinin (NK1); 10 µM): + (“+” indicates greater than 50% inhibition at 10 μM)"
CO[C@H]1[C@H](O)[C@@H](COCc2ccc(Cl)cc2)OC(OCc2ccccc2)[C@@H]1NC(=O)CCCN (stereo partly shown) [compound 92],,,,,,,,,,,,"A1 radioligand binding, percentage inhibition (Human δ-opioid (DOP)): − (“−” indicates less than 50% inhibition at 10 μM); A10 radioligand binding, percentage inhibition (Human opioid (ORL1)): − (“−” indicates less than 50% inhibition at 10 μM); A5 radioligand binding, percentage inhibition (Human melanocortin (MC5)): − (“−” indicates less than 50% inhibition at 10 μM); A7 radioligand binding, percentage inhibition (Human μ-opioid (MOP)): − (“−” indicates less than 50% inhibition at 10 μM); A11 radioligand binding, percentage inhibition (Mouse urotensin (mUR2)): − (“−” indicates less than 50% inhibition at 10 μM); A4 radioligand binding, percentage inhibition (Human Melanocortin (MC4)): − (“−” indicates less than 50% inhibition at 10 μM); A9 radioligand binding, percentage inhibition [1]: − (“−” indicates less than 50% inhibition at 10 μM); A3 radioligand binding, percentage inhibition (Human Melanocortin (MC3)): − (“−” indicates less than 50% inhibition at 10 μM); A8 radioligand binding, percentage inhibition (Human neurokinin (NK1)): + (“+” indicates greater than 50% inhibition at 10 μM); A6 radioligand binding, percentage inhibition ([2]; [125I]-S36057): − (“−” indicates less than 50% inhibition at 10 μM); A2 radioligand binding, percentage inhibition (Human κ-Opioid (KOP)): − (“−” indicates less than 50% inhibition at 10 μM)"
N=C(N)NCC(=O)N[C@H]1C(OCc2ccc(Cl)cc2)O[C@H](COCc2ccc(Cl)cc2)[C@@H](O)[C@@H]1OCc1ccc(Cl)cc1 (stereo partly shown) [compound 511],− (“−” indicates less than 50% inhibition at 10 μM),+ (“+” indicates greater than 50% inhibition at 10 μM),+ (“+” indicates greater than 50% inhibition at 10 μM),− (“−” indicates less than 50% inhibition at 10 μM),+ (“+” indicates greater than 50% inhibition at 10 μM),− (“−” indicates less than 50% inhibition at 10 μM),+ (“+” indicates greater than 50% inhibition at 10 μM),+ (“+” indicates greater than 50% inhibition at 10 μM),− (“−” indicates less than 50% inhibition at 10 μM),+ (“+” indicates greater than 50% inhibition at 10 μM),+ (“+” indicates greater than 50% inhibition at 10 μM),
N=C(N)NCCC(=O)N[C@H]1C(OCc2ccc(Cl)cc2)O[C@H](COCc2ccc3ccccc3c2)[C@@H](O)[C@@H]1OCc1ccc(Cl)cc1 (stereo partly shown) [compound 523],− (“−” indicates less than 50% inhibition at 10 μM),+ (“+” indicates greater than 50% inhibition at 10 μM),,− (“−” indicates less than 50% inhibition at 10 μM),+ (“+” indicates greater than 50% inhibition at 10 μM),,+ (“+” indicates greater than 50% inhibition at 10 μM),+ (“+” indicates greater than 50% inhibition at 10 μM),+ (“+” indicates greater than 50% inhibition at 10 μM),+ (“+” indicates greater than 50% inhibition at 10 μM),+ (“+” indicates greater than 50% inhibition at 10 μM),"A7: inhibition of radioligand binding, human μ-opioid (MOP) (Human μ-opioid (MOP); 10 µM): + (“+” indicates greater than 50% inhibition at 10 μM); A9: inhibition of radioligand binding, human neuropeptide Y (NPY-Y1) ([1]; 10 µM): − (“−” indicates less than 50% inhibition at 10 μM)"
